≈ marks a conversion by molar mass, not a printed value. Calls of active or inactive are those of the source. No cut-off for these calls is given here.
Key:
N2a [1] = assay: (§1) Inhibition of Amyloid beta (25 to 35)-induced macromolecular damage in mouse Neuro2a cells assessed as reduction in lipid peroxidation by measuring MDA content at 50 ug/ml pretreated for 2 hrs followed by amyloid beta (25 to 35) addition and measured after 24 hrs per mg protein (reference value: 106.4 +/-1.9 nmol); format: functional; details: dose 50 µg/ml; time 26 hrs
N2a [2] = assay: as §1, with “protein oxidation” for “lipid peroxidation”, “protein carbonyl” for “MDA”, “44.06 +/- 1.02 […])” for “106.4 +/-1.9 nmol)”; format: functional; details: dose 50 µg/ml; time 26 hrs
N2a [3] = assay: Inhibition of Amyloid beta (25 to 35)-induced mitochondrial membrane potential loss in mouse Neuro2a cells at 50 ug/ml pretreated for 2 hrs followed by amyloid beta (25 to 35) addition and measured after 24 hrs by rhodamine 123 staining based fluorescent spectrophotometry; format: functional, cell-based; details: dose 50.0 µg/ml, time 26.0 hrs
N2a [4] = assay: (§2) Inhibition of Amyloid beta (25 to 35)-induced oxidative damage in mouse Neuro2a cells assessed as reduction in ROS production by measuring reduction in fluorescence intensity at 50 ug/ml pretreated for 2 hrs followed by amyloid beta (25 to 35) addition and measured after 24 hrs by DCFH-DA staining -based spectrofluorimetric assay; format: functional, cell-based; details: dose 50.0 µg/ml, time 26.0 hrs
N2a [5] = assay: Inhibition of Amyloid beta (25 to 35)-induced apoptosis in mouse Neuro2a cells assessed as Bax/Bcl2 ratio at 50 ug/ml pretreated for 2 hrs followed by amyloid beta (25 to 35) addition and measured after 24 hrs by Western blot analysis (reference value: 1.09 +/- 0.018); format: functional; details: dose 50 µg/ml; time 26 hrs
N2a [6] = assay: (§3) Neuroprotective activity against Amyloid beta (25 to 35)-induced toxicity in mouse Neuro2a cells assessed as non-apoptotic viable cells at 50 ug/ml pretreated for 2 hrs followed by amyloid beta (25 to 35) addition and measured after 24 hrs by AO/EtBr dual staining based fluorescence microscopy (reference value: 53.4 +/-3.88%); format: functional; details: dose 50 µg/ml; time 26 hrs
[7] = target: Amyloid-beta precursor protein (Homo sapiens) (UniProt P05067); assay: Inhibition of amyloid beta (25 to 35) (unknown origin) aggregation assessed as fluorescence intensity at 50 ug/ml incubated for 48 hrs by ThT-based fluorescence analysis (reference value: 26.85 +/-0.78 AU); details: dose 50.0 µg/ml
Sequence of Amyloid-beta precursor protein (Homo sapiens) (P05067 whole entry): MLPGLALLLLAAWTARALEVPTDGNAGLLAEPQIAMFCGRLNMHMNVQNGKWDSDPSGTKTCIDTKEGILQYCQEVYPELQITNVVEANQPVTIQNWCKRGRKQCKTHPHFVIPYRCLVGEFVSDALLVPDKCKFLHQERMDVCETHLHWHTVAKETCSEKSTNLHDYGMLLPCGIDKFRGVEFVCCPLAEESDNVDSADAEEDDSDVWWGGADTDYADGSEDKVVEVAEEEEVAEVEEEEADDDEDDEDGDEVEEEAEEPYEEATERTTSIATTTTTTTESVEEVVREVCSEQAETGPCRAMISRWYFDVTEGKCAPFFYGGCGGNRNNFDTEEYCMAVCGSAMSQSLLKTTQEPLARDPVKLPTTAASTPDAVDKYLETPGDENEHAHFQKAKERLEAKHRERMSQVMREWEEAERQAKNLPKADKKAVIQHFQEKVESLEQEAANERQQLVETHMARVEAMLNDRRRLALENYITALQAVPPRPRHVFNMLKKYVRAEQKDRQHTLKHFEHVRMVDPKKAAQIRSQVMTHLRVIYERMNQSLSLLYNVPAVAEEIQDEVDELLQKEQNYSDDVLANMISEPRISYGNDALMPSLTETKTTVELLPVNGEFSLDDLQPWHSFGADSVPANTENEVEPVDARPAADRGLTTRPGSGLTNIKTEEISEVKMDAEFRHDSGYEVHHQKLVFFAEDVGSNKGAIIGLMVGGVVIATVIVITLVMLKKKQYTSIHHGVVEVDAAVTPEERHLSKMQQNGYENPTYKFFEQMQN

[8] = target: Amyloid-beta precursor protein (Homo sapiens) (UniProt P05067); assay: Disaggregation of amyloid beta (25 to 35) (unknown origin) mature fibrils at 50 ug/ml incubated for 1 to 9 days by ThT-based fluorescence microscopic analysis; details: dose 50.0 µg/ml, time 1-9 day
[9] = Antioxidant activity assessed as free radical scavenging activity at 100 ug/ml by DPPH assay relative to control; format: functional; details: dose 100.0 µg/ml
[10] = Cytotoxicity against mouse Neuro2a cells assessed as cell viability at 100 ug/ml incubated for 24 hrs by MTT assay; format: toxicity, cell-based; details: Neuro2a (N2a) cells, at 100 µg/mL, read-out: Activity
[11] = target: T1, Acetylcholinesterase (Mus musculus) (UniProt P21836); assay: Inhibition of Amyloid beta (25 to 35)-induced AChE activity in mouse Neuro2a cells assessed as AChE activity at 25 ug/ml pretreated for 2 hrs followed by amyloid beta (25 to 35) addition and measured after 24 hrs per mg protein (reference value: 0.0012 +/-4.18 U); format: cell-based; details: dose 25.0 µg/ml, time 26.0 hrs
T1 sequence (whole entry): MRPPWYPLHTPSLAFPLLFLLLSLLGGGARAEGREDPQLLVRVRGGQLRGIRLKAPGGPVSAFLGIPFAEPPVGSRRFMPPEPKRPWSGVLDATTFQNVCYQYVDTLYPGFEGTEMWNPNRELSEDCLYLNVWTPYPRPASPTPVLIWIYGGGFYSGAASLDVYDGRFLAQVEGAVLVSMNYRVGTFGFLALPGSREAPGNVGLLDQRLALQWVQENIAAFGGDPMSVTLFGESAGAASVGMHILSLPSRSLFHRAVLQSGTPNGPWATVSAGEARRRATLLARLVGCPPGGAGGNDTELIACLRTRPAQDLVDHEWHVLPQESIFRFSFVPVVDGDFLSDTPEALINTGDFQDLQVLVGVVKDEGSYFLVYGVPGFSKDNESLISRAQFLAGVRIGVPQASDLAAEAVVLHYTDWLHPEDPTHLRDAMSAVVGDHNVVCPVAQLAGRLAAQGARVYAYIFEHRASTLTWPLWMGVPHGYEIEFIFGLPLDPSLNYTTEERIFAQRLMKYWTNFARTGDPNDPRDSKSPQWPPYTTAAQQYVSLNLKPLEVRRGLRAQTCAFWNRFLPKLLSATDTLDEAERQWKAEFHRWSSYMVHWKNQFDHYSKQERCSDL

[12] = target: Amyloid-beta precursor protein (Homo sapiens) (UniProt P05067); assay: Inhibition of amyloid beta (25 to 35) (unknown origin) aggregation assessed as fluorescence intensity at 50 ug/ml incubated for 9 days by ThT-based fluorescence microscopic analysis (reference value: 36.84 +/-0.94 AU); details: dose 50.0 µg/ml, time 9.0 day
Artemia salina [13] = assay: Toxicity in Artemia salina assessed as induction of morphological changes by measuring improper antennae swimming setae at 5 to 100 ug/ml treated for 24 hrs by phase contrast light microscopy; format: organism-based; details: in vivo, dose 5-100 µg/ml
Artemia salina [14] = assay: Toxicity in Artemia salina assessed as decrease in total length of the shrimp at 5 to 100 ug/ml measured after 24 hrs by phase contrast light microscopy; format: organism-based; details: in vivo, dose 5-100 µg/ml
Artemia salina [15] = assay: Toxicity in Artemia salina assessed as induction of morphological changes by measuring improper development at 5 to 100 ug/ml treated for 24 hrs by phase contrast light microscopy; format: organism-based; details: in vivo, dose 5-100 µg/ml
N2a [16] = assay: Inhibition of Amyloid beta (25 to 35)-induced mitochondrial membrane potential loss in mouse Neuro2a cells at 25 to 50 ug/ml pretreated for 2 hrs followed by amyloid beta (25 to 35) addition and measured after 24 hrs by rhodamine 123 staining based fluorescent spectrophotometry; format: functional, cell-based; details: dose 25-50 µg/ml, time 26.0 hrs
[17] = target: Cholinesterase (Mus musculus) (UniProt Q03311); assay: Inhibition of Amyloid beta (25 to 35)-induced BuChE activity in mouse Neuro2a cells assessed as BuChE activity at 25 ug/ml pretreated for 2 hrs followed by amyloid beta (25 to 35) addition and measured after 24 hrs per mg protein (reference value: 0.0007 +/-3.64 U); format: cell-based; details: dose 25.0 µg/ml, time 26.0 hrs
Sequence of Cholinesterase (Mus musculus) (Q03311 whole entry): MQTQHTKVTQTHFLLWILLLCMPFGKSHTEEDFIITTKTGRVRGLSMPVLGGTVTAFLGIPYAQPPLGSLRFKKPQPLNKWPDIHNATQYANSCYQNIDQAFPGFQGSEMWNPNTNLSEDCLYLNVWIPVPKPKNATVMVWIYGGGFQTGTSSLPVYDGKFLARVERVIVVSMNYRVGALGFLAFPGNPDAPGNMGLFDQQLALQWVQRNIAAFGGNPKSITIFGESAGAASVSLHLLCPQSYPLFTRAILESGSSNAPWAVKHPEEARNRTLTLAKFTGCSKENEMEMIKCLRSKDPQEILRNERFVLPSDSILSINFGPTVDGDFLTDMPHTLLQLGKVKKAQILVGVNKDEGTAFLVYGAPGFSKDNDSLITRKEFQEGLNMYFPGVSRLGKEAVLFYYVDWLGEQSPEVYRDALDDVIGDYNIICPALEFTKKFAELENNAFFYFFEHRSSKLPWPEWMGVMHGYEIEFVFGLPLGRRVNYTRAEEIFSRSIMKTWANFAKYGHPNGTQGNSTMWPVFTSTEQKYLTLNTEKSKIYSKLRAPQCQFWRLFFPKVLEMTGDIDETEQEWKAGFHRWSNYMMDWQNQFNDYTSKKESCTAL

N2a [18] = assay: Inhibition of Amyloid beta (25 to 35)-induced apoptosis in mouse Neuro2a cells assessed as increase in BCl2 expression at 50 ug/ml pretreated for 2 hrs followed by amyloid beta (25 to 35) addition and measured after 24 hrs by Western blot analysis; format: functional, cell-based; details: dose 50.0 µg/ml, time 26.0 hrs
[19] = target: Amyloid-beta precursor protein (Homo sapiens) (UniProt P05067); assay: Inhibition of amyloid beta (25 to 35) (unknown origin) aggregation assessed as fluorescence intensity at 50 ug/ml incubated for 96 hrs by ThT-based fluorescence analysis (reference value: 31.63 +/-0.68 AU); details: dose 50.0 µg/ml
[20] = target: Amyloid-beta precursor protein (Homo sapiens) (UniProt P05067); assay: Inhibition of amyloid beta (25 to 35) (unknown origin) aggregation assessed as fluorescence intensity at 50 ug/ml incubated for 24 hrs by ThT-based fluorescence analysis (reference value: 22.15 +/-1.41 AU); details: dose 50.0 µg/ml
[21] = Toxicity in Artemia salina assessed as mortality rate at 75 ug/ml measured after 24 hrs relative to control; format: organism-based; details: in vivo, at 75 µg/mL
[22] = target: Acetylcholinesterase (Electrophorus electricus) (UniProt O42275); assay: Inhibition of electric eel AchE using acetylthiocholine iodide as substrate at 100 ug/ml by Ellman's method relative to control; details: dose 100.0 µg/ml
Sequence of Acetylcholinesterase (Electrophorus electricus) (O42275 24-633 limits assumed): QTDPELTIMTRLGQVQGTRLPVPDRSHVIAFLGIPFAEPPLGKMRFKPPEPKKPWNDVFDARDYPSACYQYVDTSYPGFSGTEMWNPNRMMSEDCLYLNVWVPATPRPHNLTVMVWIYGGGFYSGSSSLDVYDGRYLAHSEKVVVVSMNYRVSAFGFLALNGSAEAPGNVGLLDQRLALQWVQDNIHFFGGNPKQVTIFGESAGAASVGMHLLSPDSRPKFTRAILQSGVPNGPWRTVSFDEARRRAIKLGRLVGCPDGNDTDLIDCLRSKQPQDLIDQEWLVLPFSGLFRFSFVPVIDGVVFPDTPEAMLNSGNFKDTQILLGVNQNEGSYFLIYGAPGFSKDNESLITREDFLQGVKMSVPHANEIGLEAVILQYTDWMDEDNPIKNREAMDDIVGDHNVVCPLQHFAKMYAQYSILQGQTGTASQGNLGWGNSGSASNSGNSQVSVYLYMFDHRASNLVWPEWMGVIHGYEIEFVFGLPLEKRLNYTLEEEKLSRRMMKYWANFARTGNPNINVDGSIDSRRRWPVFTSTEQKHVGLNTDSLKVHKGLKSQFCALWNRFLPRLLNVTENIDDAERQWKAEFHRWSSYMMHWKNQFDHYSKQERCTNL

Artemia salina [23] = assay: Toxicity in Artemia salina assessed as induction of morphological changes by measuring variation in the mandibles at 5 to 100 ug/ml treated for 24 hrs by phase contrast light microscopy; format: organism-based; details: in vivo, dose 5-100 µg/ml
[24] = target: Cholinesterase (Mus musculus) (UniProt Q03311); assay: Inhibition of Amyloid beta (25 to 35)-induced BuChE activity in mouse Neuro2a cells assessed as BuChE activity at 50 ug/ml pretreated for 2 hrs followed by amyloid beta (25 to 35) addition and measured after 24 hrs per mg protein (reference value: 0.0007 +/-3.64 U); format: cell-based; details: dose 50.0 µg/ml, time 26.0 hrs
[25] = Toxicity in Artemia salina assessed as mortality rate at 100 ug/ml measured after 24 hrs relative to control; format: organism-based; details: in vivo, at 100 µg/mL
[26] = Toxicity in Artemia salina assessed as mortality rate at 50 ug/ml measured after 24 hrs relative to control; format: organism-based; details: in vivo, at 50 µg/mL
[27] = Toxicity in Artemia salina assessed as lethal dose; format: organism-based; details: in vivo
N2a [28] = assay: as §1, with “protein oxidation” for “lipid peroxidation”, “protein carbonyl” for “MDA”, “25” for “50”, “44.06 +/- 1.02” for “106.4 +/-1.9”; format: functional; details: dose 25 µg/ml; time 26 hrs
[29] = target: T1, Acetylcholinesterase (Mus musculus); assay: Inhibition of Amyloid beta (25 to 35)-induced AChE activity in mouse Neuro2a cells assessed as AChE activity at 50 ug/ml pretreated for 2 hrs followed by amyloid beta (25 to 35) addition and measured after 24 hrs per mg protein (reference value: 0.0012 +/-4.18 U); format: cell-based; details: dose 50.0 µg/ml, time 26.0 hrs
[30] = target: Acetylcholinesterase (Electrophorus electricus) (UniProt O42275); assay: Inhibition of electric eel AchE using acetylthiocholine iodide as substrate at 20 to 100 ug/ml by Ellman's method relative to control; details: dose 20-100 µg/ml
N2a [31] = assay: (§4) Inhibition of Amyloid beta (25 to 35)-induced apoptosis in mouse Neuro2a cells assessed as reduction in caspase-3 activity by measuring PNA level at 50 ug/ml pretreated for 2 hrs followed by amyloid beta (25 to 35) addition and measured after 24 hrs per mg protein (reference value: 0.12 +/-0.004 mM/min); format: functional; details: dose 50 µg/ml; time 26 hrs
N2a [32] = assay: Inhibition of Amyloid beta (25 to 35)-induced apoptosis in mouse Neuro2a cells assessed as decrease in Bax expression at 50 ug/ml pretreated for 2 hrs followed by amyloid beta (25 to 35) addition and measured after 24 hrs by Western blot analysis; format: functional, cell-based; details: dose 50.0 µg/ml, time 26.0 hrs
N2a [33] = assay: Cytotoxicity against mouse Neuro2a cells upto 200 ug/ml incubated for 24 hrs by MTT assay; format: toxicity, cell-based; details: dose < 200 µg/ml
N2a [34] = assay: as §4, with “25” for “50”; format: functional; details: dose 25 µg/ml; time 26 hrs
N2a [35] = assay: as §1, with “25” for “50”; format: functional; details: dose 25 µg/ml; time 26 hrs
N2a [36] = assay: Neuroprotective activity against Amyloid beta (25 to 35)-induced toxicity in mouse Neuro2a cells assessed as reduction in cell viability loss at 25 to 100 ug/ml pretreated for 2 hrs followed by amyloid beta (25 to 35) addition and measured after 24 hrs by MTT assay; format: functional, cell-based; details: dose 25-100 µg/ml, time 26.0 hrs
[37] = Toxicity in Artemia salina assessed as mortality rate at 5 ug/ml measured after 24 hrs relative to control; format: organism-based; details: in vivo, at 5 µg/mL
N2a [38] = assay: as §2, with “intensity at 25 to 50 ug/ml” for “intensity at 50 ug/ml”; format: functional, cell-based; details: dose 25-50 µg/ml, time 26.0 hrs
N2a [39] = assay: as §3, with “25” for “50”; format: functional; details: dose 25 µg/ml; time 26 hrs
[40] = Toxicity in Artemia salina assessed as mortality rate at 25 ug/ml measured after 24 hrs relative to control; format: organism-based; details: in vivo, at 25 µg/mL

Structure (SMILES): COc1cc2c(cc1OC)C(=O)C(CC1CCN(Cc3ccccc3)CC1)C2 (centres undefined) [DONEPEZIL]
- Activity (N2a [1]): 56.6 nmol
- Activity (N2a [2]): 25.1 nmol/mg
- inhibition (N2a [3]): Active
- inhibition (N2a [4]): Active
- Ratio (N2a [5]): 0.57
- Activity (N2a [6]): 79%

Structure (SMILES): COc1ccc(/C=C/C(=O)c2c(O)cc(O[C@@H]3O[C@H](CO[C@@H]4O[C@@H](C)[C@H](O)[C@@H](O)[C@H]4O)[C@@H](O)[C@H](O)[C@H]3O)cc2OC)cc1O
- Flu intensity [7]: 6.45 a.u.
- Activity [8]: Active
- inhibition [9]: 68.4%
- viability at 24 h, 100 ug/ml [10]: 99.6%
- Activity [11]: 0 U
- Flu intensity [12]: 11.8 a.u.
- Activity (N2a [1]): 64.63 nmol
- Activity (Artemia salina [13]): Toxic
- Activity (Artemia salina [14]): Toxic
- Activity (Artemia salina [15]): Toxic
- inhibition (N2a [16]): Active
- Activity [17]: 0 U
- inhibition (N2a [18]): Active
- Flu intensity [19]: 10 a.u.
- Flu intensity [20]: 19.8 a.u.
- Activity (N2a [2]): 27.9 nmol/mg
- mortality at 24 h, 75 ug/ml [21]: 36.6%
- inhibition [22]: 93%
- Activity (Artemia salina [23]): Toxic
- Activity [24]: 0 U
- mortality at 24 h, 100 ug/ml [25]: 53.3%
- mortality at 24 h, 50 ug/ml [26]: 3.33%
- LC50 [27]: 100 µg/mL (≈ 160 µM)
- Ratio (N2a [5]): 0.51
- Activity (N2a [28]): 33.9 nmol/mg
- Activity [29]: 0 U
- inhibition [30]: > 80%
- Activity (N2a [31]): 0.03 mM/min
- inhibition (N2a [32]): Active
- Activity (N2a [33]): Non-Toxic
- Activity (N2a [34]): 0.07 mM/min
- Activity (N2a [35]): 77.84 nmol
- Activity (N2a [36]): Active
- mortality at 24 h, 5 ug/ml [37]: 0%
- inhibition (N2a [38]): Active
- Activity (N2a [39]): 70.33%
- Activity (N2a [6]): 81.66%
- mortality at 24 h, 25 ug/ml [40]: 0%

From ChEMBL document CHEMBL5329217, “Hesperidin Methyl Chalcone reduces extracellular Aβ(25-35) peptide aggregation and fibrillation and also protects Neuro 2a cells from Aβ(25-35) induced neuronal dysfunction” (Bioorg Med Chem, 2023)
